According to publication PMC5799093, “Proceedings of Réanimation 2018, the French Intensive Care Society International Congress” (Annals of Intensive Care, 2018):
Where two headings read alike, the source gives them in different places.

Key:
Acinetobacter baumannii = format: cell-based; conditions: blood culture isolates 2012–2016
Method: (§1) Patients and methods: From January 2012 to December 2016, a total of 2,182 non repetitive strains were isolated from blood cultures. Incubation of blood culture vials and the detection of bacterial growth were performed by the BACTEC system. All Isolated organisms were identified on the basis of standard microbiological techniques. Antibiotic susceptibility testing was carried out by the agar disk diffusion method, and susceptibility results were interpreted using clinical breakpoints according to CA-SFM 2013 and 2015 guidelines. Data were analyzed using the SIR-system. Minimum inhibitory concentrations of colistin, imipenem and vancomycin were determined using the Etest® method (bioMérieux).

Pseudomonas = conditions: January 2010 - June 2014
[1] = Beta-lactam plasma concentrations in children with severe sepsis or septic shock (HPLC); conditions: current standard dosing
[2] = tested on: acutely poisoned ventilated patients; conditions: human, in vivo
[3] = tested on: cardiogenic shock patients; assay: OPTIMA CC double-blind randomized trial, epinephrine vs norepinephrine in cardiogenic shock after myocardial infarction; format: in vivo
Text: Patients and methods: Multicenter, double-blind, randomized trial in 8 french ICU. Cardiogenic shock patients due to myocardial infarction treated by PCI were randomized to receive epinephrine or norepinephrine to maintain MAP at 70 mmHg. Dobutamine was introduced at the physician discretion according to a combination of parameters—echocardiographic parameters, cardiac index, lactate clearance, SVO2 and Swan-Ganz derived parameters.

[4] = Norepinephrine in pediatric septic shock, mortality (P-169); format: in vivo, human (children)
glucocorticoid receptors = glucocorticoid receptors (Homo sapiens, UniProt P04150)
Staphylococcus aureus [5] = format: cell-based; conditions: blood culture isolates 2012–2016
Method: as §1

[6] = tested on: Stenotrophomonas maltophilia VAP; assay: Risk factors for Stenotrophomonas maltophilia VAP, matched analysis; format: in vivo, patients; conditions: exposure during the week before VAP; 93 cases, 380 controls
Method: Patients and methods: We conducted a retrospective analysis of prospectively collected data in a multicenter database in France. VAP was determined as microbiologically documented pneumonia occurring after at least two days of mechanical ventilation. All patients admitted from 2000 to 2015 presenting at least one episode of VAP were included. SM-VAP were compared with VAP due to other micro-organisms (VAP-other). To assess risk factors and day-30 (D30) mortality, SM-VAP were matched (1 − n) with VAP-other based on center, time from ICU admission to VAP occurrence, and SAPS II score.

[7] = not given; remark: listed apart in the source
Enterococcus faecalis = assay: Resistance in nosocomial urinary tract infection: Enterococcus faecalis (P-219); conditions: January 2010 - June 2014
Staphylococcus aureus [8] = assay: Resistance in nosocomial urinary tract infection: Staphylococcus aureus (P-219); conditions: January 2010 - June 2014
[9] = tested on: carbapenemase-producing Enterobacteriaceae; assay: Antibiotic susceptibility of Enterobacteriaceae with decreased susceptibility to carbapenems; format: cell-based
[10] = tested on: Farnesoid X receptor (FXR); assay: LPS sepsis in CKD mice treated with sevelamer (P-138); format: in vivo, mice (C57BL6 J)
Method: Patients and methods: Sepsis was provoked by the injection of 0.5 mg kg of LPS 6 weeks after the creation of CKD. The CKD was created by unilateral nephrectomy associated with contralateral thermocauterisation. The mice (C57BL6 J) were randomly assigned to one of the following groups—sham placebo, CKD placebo, sham LPS or CKD LPS. A fifth group of CKD LPS mice received a treatment with sevelamer (a bile acid sequestrant) during 6 weeks. Survival of the animals, serum biochemistry and molecular biology in the kidney were performed after sacrifice.

[11] = Piperacillin population pharmacokinetics in critically ill children; format: in vivo; conditions: median (range), one compartment model, n = 50 children
Text: Pharmacokinetics were described using the non-linear mixed effect modelling software MONOLIX.

[12] = Residual serum concentrations of piperacillin and amoxicillin and neurological disorders (HPLC MS); format: in vivo, critically ill patients
Method: Patients and methods: This study was carried out retrospectively during the period 01.01.2015 to 08.02.2017, in patients hospitalized in the medical ICU-CHU Rouen with PTM.

tramadol-overdosed rats = assay: Antidotes for tramadol overdose: seizures, plethysmography, sedation, EEG; conditions: for tramadol-induced respiratory depression / ventilation: whole-body plethysmography
Acinetobacter Baumanii = assay: Resistance of nosocomial infection isolates: Acinetobacter Baumanii (P-222); format: cell-based; conditions: n = 39 isolates, 2016
Text: Patients and methods: This was a retrospective study conducted within a 22-bed medical ICU of a Tunisian teaching hospital (301 beds) carried from January 1st to December 31, 2016. We recorded demographic patients’ characteristics which ICU’s stay was complicated with at least one NI. Then we described pathogens and microbiological specificities of NI.

[13] = tested on: diaphragm contraction and workload; assay: Diaphragmatic electromyography after diazepam / buprenorphine; format: in vivo, Sprague–Dawley rat; conditions: 30 mg kg BUP intraperitoneally, 20 mg kg DZP subcutaneously
Method: Patients and methods: 11C-BUP was administered intravenously, 30 mg kg unlabeled BUP intraperitoneally and 20 mg kg DZP subcutaneously.

Escherichia-coli = assay: Resistance in nosocomial urinary tract infection: Escherichia-coli (P-219); conditions: January 2010 - June 2014
[14] = tested on: patients after out-of-hospital cardiac arrest
[15] = tested on: E.coli lipopolysaccharide-challenged rats; assay: Sodium lactate vs 0.9% NaCl in rat endotoxin shock: fluid balance and capillary leak; format: in vivo
Method: Patients and methods: The sixteen sedated, mechanically ventilated rats were challenged with intravenous infusion of E.coli lipopolysaccharide (10 mg/kg). Two groups of eight animals were randomised to receive a continous perfusion (5 mL/kg/h) of sodium lactate 11.2% (treatment group) or 0.9% NaCl (control group). In order to inject the same caloric load in the two groups, a 4.35 mL/kg/h of either water of 10% dextrose solution were perfused. Mean arterial pressure, heart rate, urine ouput were measured over a 210 min period. An echocardiography was then performed and Evans Blue (1%, 30 mg/kg) was intravenously injected 30 min before sacrifice. Organs were withdrawn and organs wet dry ratio and Evans blue dye extravasation were measured.

[16] = Hemodynamic and metabolic effects of molar sodium lactate infusion in critically ill patients (P-135); format: in vivo, human
Method: Patients and methods: This was a retrospective study performed in a large University Hospital. All patients receiving the molecule were included in the analysis. Indication for sodium lactate, dose, and modality of administration were collected. We also collected clinical and biological variables before sodium lactate infusion, after 6 h (H6), and after 24 h (H24). An analysis of the evolution of these variables at H6 and H24 was performed.

Chain of glucocorticoid receptors (P04150 whole entry): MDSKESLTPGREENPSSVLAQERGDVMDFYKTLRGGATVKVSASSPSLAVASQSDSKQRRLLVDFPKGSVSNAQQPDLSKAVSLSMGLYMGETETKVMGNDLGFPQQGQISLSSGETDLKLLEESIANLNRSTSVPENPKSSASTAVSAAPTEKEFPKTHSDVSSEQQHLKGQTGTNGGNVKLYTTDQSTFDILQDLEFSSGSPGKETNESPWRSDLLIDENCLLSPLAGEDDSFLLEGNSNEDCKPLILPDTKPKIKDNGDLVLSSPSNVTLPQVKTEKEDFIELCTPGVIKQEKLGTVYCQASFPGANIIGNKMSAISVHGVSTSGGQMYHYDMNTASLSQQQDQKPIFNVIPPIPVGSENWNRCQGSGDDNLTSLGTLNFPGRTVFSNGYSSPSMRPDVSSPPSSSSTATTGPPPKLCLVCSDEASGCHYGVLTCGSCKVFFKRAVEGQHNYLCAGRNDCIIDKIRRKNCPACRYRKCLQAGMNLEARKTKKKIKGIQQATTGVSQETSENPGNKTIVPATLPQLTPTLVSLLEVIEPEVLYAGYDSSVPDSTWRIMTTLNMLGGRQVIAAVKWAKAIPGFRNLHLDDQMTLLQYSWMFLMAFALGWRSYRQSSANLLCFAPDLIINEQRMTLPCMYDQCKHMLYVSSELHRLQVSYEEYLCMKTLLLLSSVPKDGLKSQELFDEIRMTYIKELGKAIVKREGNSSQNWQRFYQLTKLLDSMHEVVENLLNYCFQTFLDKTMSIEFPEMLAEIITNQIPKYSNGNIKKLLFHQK

For CC(C)(O/N=C(\C(=O)N[C@@H]1C(=O)N2C(C(=O)[O-])=C(C[n+]3ccccc3)CS[C@H]12)c1csc(N)n1)C(=O)O [ceftazidime], the resistance rate (Acinetobacter baumannii) was “Eighty per cent”, the resistance rate (Klebsiella pneumoniae) was 70% and the resistance rate (Pseudomonas aeruginosa) was 39%. For the same compound, the resistant (Pseudomonas) was 61% and the “patients with insufficient plasma concentration” value [1] was 0%.
In the case of CN1[C@@H]2CC[C@H]1C[C@@H](OC(=O)C(CO)c1ccccc1)C2 (some centres unmarked) [atropine], the “OR, independent risk factor for delirium” value [2] is reported as 2.333.
With NC[C@H](O)c1ccc(O)c(O)c1 [norepinephrine] the “arterial pH and lactate” value ([3]; H2 to H24) was “arterial pH increased and lactate level decreased”, the ECMO use ([3]; in vivo) was 3% and the “cardiac double product (surrogate of myocardial oxygen consumption)” value ([3]; in vivo) was “did not change”. The heart rate evolution ([3]; in vivo) was “did not change”, the incidence of arrhythmia ([3]; in vivo) was 33% and the mortality ([3]; in vivo) was 37%. The “incidence of refractory shock” value ([3]; titrated to MAP 70 mmHg, epinephrine n = 27, norepinephrine n = 30) was 7%, the “OR of maximal dose for mortality” value ([4]; 95% confidence interval 1.1–2.0, p = 0.02) was 1.4 and the global mortality rate ([4]; 191 children with septic shock treated with norepinephrine) was 28.8%. For the same compound, the “mortality rate in preterm neonates” value ([4]; in vivo) was 35.3% and the mortality ([4]; when dose reached 0.75 µg kg per minute) was 46.2%.
In the case of C[C@H]1C[C@H]2[C@@H]3CCC4=CC(=O)C=C[C@]4(C)[C@@]3(F)[C@@H](O)C[C@]2(C)[C@@]1(O)C(=O)CO [Betamethasone], the “corticoresistance (mean blanching score < 2)” value (glucocorticoid receptors; non-septic critically ill) is reported as 56% and the “corticoresistance (mean blanching score < 2)” value (glucocorticoid receptors; septic shock, 10 µl cream on 3 cm^2, read at 24 h) is reported as 78%.
With CC(=O)NC[C@H]1CN(c2ccc(N3CCOCC3)c(F)c2)C(=O)O1 [linezolid] the resistance rate (Staphylococcus aureus [5]) was 1%.
With O=C(O)c1cn(C2CC2)c2cc(N3CCNCC3)c(F)cc2c1=O [ciprofloxacin] the “OR for SM-VAP, univariate analysis” value [6] was 1.77 [0.92; 3.39].
For Amoxicillin clavulanic acid [AMC], the efficiency (community-acquired peritonitis) was 77% and the “impact when AMC was inadequate” value (in vivo) was “no impact on morbidity and mortality”.
In the case of Cyclosporine A [CsA], the “IL-1, IL-6, IL-8 and TNFα levels versus Control group” value ([7]; D0 and D1, p = ns) is reported as “did not significantly differ” and the “level of IL 10 at admission versus Control group” value ([7]; p < 0.05) is reported as “significantly lower”.
In the case of CN[C@H](CC(C)C)C(=O)N[C@H]1C(=O)N[C@@H](CC(N)=O)C(=O)N[C@H]2C(=O)N[C@H]3C(=O)N[C@H](C(=O)N[C@H](C(=O)O)c4cc(O)cc(O)c4-c4cc3ccc4O)[C@H](O)c3ccc(c(Cl)c3)Oc3cc2cc(c3O[C@@H]2O[C@H](CO)[C@@H](O)[C@H](O)[C@H]2O[C@H]2C[C@](C)(N)[C@H](O)[C@H](C)O2)Oc2ccc(cc2Cl)[C@H]1O [vancomycin], the resistance (Enterococcus faecalis) is reported as “no resistance” and the resistance (Staphylococcus aureus [8]) is reported as “without any resistance”.
For CC1(C)S[C@@H]2[C@H](NC(=O)[C@H](N)c3ccccc3)C(=O)N2[C@H]1C(=O)O [ampicillin], the resistance (Enterococcus faecalis) was “no resistance”.
CN(C)c1cc(NC(=O)CNC(C)(C)C)c(O)c2c1C[C@H]1C[C@H]3[C@H](N(C)C)C(O)=C(C(N)=O)C(=O)[C@@]3(O)C(O)=C1C2=O [tigecycline] gave a susceptibility ([9]; colistin excepting with Proteus) of 63% and a resistance rate (Staphylococcus aureus [5]) of 15%.
For sevelamer, the “RNA expression of FXR in the kidney versus CKD LPS group” value ([10]; sevelamer 6 weeks before LPS) was “increased the RNA expression of FXR”, the “plasmatic concentration of Il1b, TNFa versus CKD LPS group” value ([10]; sevelamer 6 weeks before LPS) was “lower plasmatic concentration” and the “survival of CKD LPS animals” value ([10]; sevelamer 6 weeks before LPS 0.5 mg kg) was “improved the survival”.
With CCN1CCN(C(=O)N[C@@H](C(=O)N[C@@H]2C(=O)N3[C@@H]2SC(C)(C)[C@@H]3C(=O)O)c2ccccc2)C(=O)C1=O [Piperacillin] the clearance ([11]; MONOLIX, intermittent infusions) was 3 (0.71–10) L h^−1, the volume of distribution [11] was 3.8 (0.72–25.8) L and the “residual concentration associated with occurrence of neurological disorders” value ([12]; 80% specificity and sensitivity) was “greater than 40 mg L^−1”. The “residual serum concentration, patients with neurological disorders or wakefulness delays” value ([12]; HPLC MS) was 98.2 ± 16.8 mg L^−1 and the “residual serum concentration, patients without neurological disorders” value ([12]; HPLC MS) was 21.6 ± 4.0 mg L^−1.
For C=CCN1CC[C@]23c4c5ccc(O)c4O[C@H]2C(=O)CC[C@@]3(O)[C@H]1C5 [naloxone], the “tramadol-induced respiratory depression / ventilation” value (tramadol-overdosed rats) was “reversed tramadol-induced respiratory depression”.
With CN(C)c1cc(NC(=O)CNC(C)(C)C)c(O)c2c1C[C@H]1C[C@H]3[C@H](N(C)C)C(=O)C(C(N)=O)=C(O)[C@@]3(O)C(=O)C1=C2O [tygecycline] the resistance (Acinetobacter Baumanii) was 100%.
In the case of CN1C(=O)CN=C(c2ccccc2)c2cc(Cl)ccc21 [diazepam], the sedation depth (tramadol-overdosed rats; rat, in vivo) is reported as “significantly deepened rat sedation” and the “tramadol-induced respiratory depression / ventilation” value (tramadol-overdosed rats) is reported as “without improving ventilation”.
For C[C@]1(Cn2ccnn2)[C@H](C(=O)O)N2C(=O)C[C@H]2S1(=O)=O [Tazobactam], the “OR for SM-VAP, univariate analysis” value [6] was 1.75 [1.04; 2.94].
For buprenorphine, the “diaphragm contraction (first 60 min AUC)” value [13] was “significantly increased” and the “diaphragm workload (first 60 min AUC)” value [13] was “significantly increased”.
With C[C@@H](O)[C@H]1C(=O)N2C(C(=O)O)=C(S[C@@H]3CN[C@H](C(=O)Nc4cccc(C(=O)O)c4)C3)[C@H](C)[C@H]12 [ertapenem] the “strains with MIC > 1 mg l” value ([9]; 39 selected bacteria) was 95% and the resistance (Escherichia-coli) was “without resistance”.
In the case of amoxicillin-clavulanic acid, the “HR for early VAP vs placebo” value ([14]; IC 95% [0.315 + 0.946], p = 0.031) is reported as 0.546, the “incidence of early VAP (< 7 days)” value ([14]; IV 1 g 200 mg three times a day for 2 days, n = 99) is reported as 19.2% and the “Day 28 mortality” value ([14]; n = 99) is reported as 41.4%. The “late VAP (> 7 days), number of patients” value ([14]; n = 99) was 4.
With CC(O)C(=O)[O-].[Na+] (centres unmarked) [sodium lactate] the hemodynamics parameters ([15]; after sodium lactate infusion) was “not significantly enhanced”, the “fluid balance, organs wet dry ratio and Evans blue dye extravasation” value ([15]; sodium lactate 11.2% 5 mL/kg/h vs 0.9% NaCl, LPS 10 mg/kg, 210 min) was “not significantly improved” and the diuresis ([16]; 6 h period following initiation, p = 0.02) was “increase”. The mean arterial pressure ([16]; at H6 (p = 0.009) and H24 (p = 0.003), 250 ml infusion, 104 patients) was “significant increase”, the “pH, bicarbonate, base excess, and sodium” value ([16]; at H6 and H24, all p < 0.0001) was “increase” and the “patients with plasma sodium >= 150 mmol l and pH >= 7.50” value ([16]; at H24) was 5%. The catecholamine dose ([16]; at H24, p = 0.002) was “decrease” and the heart rate ([16]; at H24, p = 0.05) was “decrease”.
